Data published in patent publication US4110327A, “2,3 Diketo-piperazinocarbonylamino alkanoic acids and derivatives” (Toyama Chemical Co., Ltd., priority 1974, dated 1978).
Values after ≈ are worked out from the molar mass of the structure shown.

Key:
Type in all cases: cell-based
Escherichia coli = experiment: MIC against clinical isolates; details: unit assumed
Proteus mirabilis = experiment: MIC against clinical isolates; details: clinical isolate, unit assumed
Staphylococcus aureus = experiment: MIC against clinical isolates; details: unit assumed
Escherichia coli NIHJ = experiment: MIC against standard strain, plate method; details: unit assumed
Procedure, shortened: (§1)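 MIC values come from the plate method on heart infusion agar at pH 7.4, with each plate receiving 10^4 cells from a 10^6 cells/ml suspension.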

[1] = system: Staphylococcus aureus 209p; experiment: MIC against standard strain, plate method; details: unit assumed
Procedure, shortened: as §1

Klebsiella pneumoniae [2] = experiment: MIC against standard strain, plate method; details: unit assumed
Procedure, shortened: as §1

[3] = system: Pseudomonas aeruginosa I.F.O.; experiment: MIC against standard strain, plate method; details: unit assumed
Procedure, shortened: as §1

Proteus vulgaris 3027 = experiment: MIC against standard strain, plate method; details: Proteus vulgaris 3027, standard strain; unit assumed
Procedure, shortened: as §1

Proteus morganii = experiment: MIC against clinical isolates; details: clinical isolate, unit assumed
Klebsiella pneumoniae [4] = experiment: MIC against clinical isolates; details: unit assumed
Pseudomonas aeruginosa = experiment: MIC against clinical isolates; details: unit assumed
Proteus vulgaris = experiment: MIC against clinical isolates; details: clinical isolate, unit assumed
Proteus rettgeri = experiment: MIC against clinical isolates; details: clinical isolate, unit assumed

CCN1CCN(C(=O)NC(C(=O)NC2C(=O)N3C(C(=O)O)=C(COC(C)=O)CSC23)c2ccccc2)C(=O)C1=O (stereo not drawn) [compound 61]
MIC (Escherichia coli; clinical isolate GN 3435): 3.13 µg/mL (≈ 5.46 µM)
MIC (Escherichia coli; clinical isolate GN 3452): 6.25 µg/mL (≈ 10.9 µM)
MIC (Escherichia coli; clinical isolate GN 3465): 50 µg/mL (≈ 87.2 µM)
MIC (Escherichia coli; clinical isolate GN 3481): 3.13 µg/mL (≈ 5.46 µM)
MIC (Escherichia coli; clinical isolate GN 3611): 200 µg/mL (≈ 349 µM)
MIC (Escherichia coli; clinical isolate K-1): 3.13 µg/mL (≈ 5.46 µM)
MIC (Escherichia coli; clinical isolate K-2): 6.25 µg/mL (≈ 10.9 µM)
MIC (Escherichia coli; clinical isolate K-3): 100 µg/mL (≈ 174 µM)
MIC (Escherichia coli; clinical isolate K-4): 6.25 µg/mL (≈ 10.9 µM)
MIC (Proteus mirabilis): 1.56 µg/mL (≈ 2.72 µM)
MIC (Staphylococcus aureus; clinical isolate F-1): 3.13 µg/mL (≈ 5.46 µM)
MIC (Staphylococcus aureus; clinical isolate F-2): 1.56 µg/mL (≈ 2.72 µM)
MIC (Staphylococcus aureus; clinical isolate F-3): 1.56 µg/mL (≈ 2.72 µM)
MIC (Staphylococcus aureus; clinical isolate F-4): 3.13 µg/mL (≈ 5.46 µM)
MIC (Staphylococcus aureus; clinical isolate F-5): 50 µg/mL (≈ 87.2 µM)
MIC (Staphylococcus aureus; clinical isolate MS 8588): 1.56 µg/mL (≈ 2.72 µM)
MIC (Staphylococcus aureus; clinical isolate MS 8596): 1.56 µg/mL (≈ 2.72 µM)
MIC (Staphylococcus aureus; clinical isolate MS 8619): 1.56 µg/mL (≈ 2.72 µM)
MIC (Staphylococcus aureus; clinical isolate MS 8684): 1.56 µg/mL (≈ 2.72 µM)
MIC (Staphylococcus aureus; clinical isolate MS 8713): 1.56 µg/mL (≈ 2.72 µM)
MIC (Escherichia coli NIHJ): < 0.79 µg/mL
MIC [1]: < 0.79 µg/mL
MIC (Klebsiella pneumoniae [2]): 3.13 µg/mL (≈ 5.46 µM)
MIC [3]: 25 µg/mL (≈ 43.6 µM)
MIC (Proteus vulgaris 3027): 3.13 µg/mL (≈ 5.46 µM)
MIC (Proteus morganii): 1.56 µg/mL (≈ 2.72 µM)
MIC (Klebsiella pneumoniae [4]; clinical isolate GN 917): 6.25 µg/mL (≈ 10.9 µM)
MIC (Klebsiella pneumoniae [4]; clinical isolate GN 4081): 12.5 µg/mL (≈ 21.8 µM)
MIC (Klebsiella pneumoniae [4]; clinical isolate GN 4117): 12.5 µg/mL (≈ 21.8 µM)
MIC (Pseudomonas aeruginosa; clinical isolate GN 82): 25 µg/mL (≈ 43.6 µM)
MIC (Pseudomonas aeruginosa; clinical isolate GN 163): 25 µg/mL (≈ 43.6 µM)
MIC (Pseudomonas aeruginosa; clinical isolate GN 221): 6.25 µg/mL (≈ 10.9 µM)
MIC (Pseudomonas aeruginosa; clinical isolate GN 244): 25 µg/mL (≈ 43.6 µM)
MIC (Pseudomonas aeruginosa; clinical isolate GN 376): 12.5 µg/mL (≈ 21.8 µM)
MIC (Pseudomonas aeruginosa; clinical isolate GN 383): 12.5 µg/mL (≈ 21.8 µM)
MIC (Pseudomonas aeruginosa; clinical isolate GN 1035): 100 µg/mL (≈ 174 µM)
MIC (Pseudomonas aeruginosa; clinical isolate GN 1091): 25 µg/mL (≈ 43.6 µM)
MIC (Pseudomonas aeruginosa; clinical isolate GN 2565): 50 µg/mL (≈ 87.2 µM)
MIC (Pseudomonas aeruginosa; clinical isolate GN 2987): 25 µg/mL (≈ 43.6 µM)
MIC (Pseudomonas aeruginosa; clinical isolate S-1): 50 µg/mL (≈ 87.2 µM)
MIC (Pseudomonas aeruginosa; clinical isolate S-2): 50 µg/mL (≈ 87.2 µM)
MIC (Pseudomonas aeruginosa; clinical isolate S-3): 50 µg/mL (≈ 87.2 µM)
MIC (Pseudomonas aeruginosa; clinical isolate S-4): 50 µg/mL (≈ 87.2 µM)
MIC (Proteus vulgaris): 0.8 µg/mL (≈ 1.39 µM)
MIC (Proteus rettgeri): 3.13 µg/mL (≈ 5.46 µM)

CC(=O)OCC1=C(C(=O)O)N2C(=O)C(NC(=O)C(NC(=O)N3CCN(C)C(=O)C3=O)c3ccccc3)C2SC1 (single isomer, unassigned) [compound 60]
MIC (Escherichia coli; clinical isolate GN 3435): 6.25 µg/mL (≈ 11.2 µM)
MIC (Escherichia coli; clinical isolate GN 3452): 12.5 µg/mL (≈ 22.3 µM)
MIC (Escherichia coli; clinical isolate GN 3465): 100 µg/mL (≈ 179 µM)
MIC (Escherichia coli; clinical isolate GN 3481): 6.25 µg/mL (≈ 11.2 µM)
MIC (Escherichia coli; clinical isolate GN 3611): > 200 µg/mL
MIC (Escherichia coli; clinical isolate K-1): 6.25 µg/mL (≈ 11.2 µM)
MIC (Escherichia coli; clinical isolate K-2): 12.5 µg/mL (≈ 22.3 µM)
MIC (Escherichia coli; clinical isolate K-3): 200 µg/mL (≈ 357 µM)
MIC (Escherichia coli; clinical isolate K-4): 25 µg/mL (≈ 44.7 µM)
MIC (Proteus mirabilis): 3.13 µg/mL (≈ 5.59 µM)
MIC (Staphylococcus aureus; clinical isolate F-1): 3.13 µg/mL (≈ 5.59 µM)
MIC (Staphylococcus aureus; clinical isolate F-2): 0.78 µg/mL (≈ 1.39 µM)
MIC (Staphylococcus aureus; clinical isolate F-3): 1.56 µg/mL (≈ 2.79 µM)
MIC (Staphylococcus aureus; clinical isolate F-4): 1.56 µg/mL (≈ 2.79 µM)
MIC (Staphylococcus aureus; clinical isolate F-5): 50 µg/mL (≈ 89.4 µM)
MIC (Staphylococcus aureus; clinical isolate MS 8588): 1.56 µg/mL (≈ 2.79 µM)
MIC (Staphylococcus aureus; clinical isolate MS 8596): 0.78 µg/mL (≈ 1.39 µM)
MIC (Staphylococcus aureus; clinical isolate MS 8619): 0.78 µg/mL (≈ 1.39 µM)
MIC (Staphylococcus aureus; clinical isolate MS 8684): 1.56 µg/mL (≈ 2.79 µM)
MIC (Staphylococcus aureus; clinical isolate MS 8713): 0.78 µg/mL (≈ 1.39 µM)
MIC (Escherichia coli NIHJ): < 0.1 µg/mL
MIC [1]: 0.79 µg/mL (≈ 1.41 µM)
MIC (Klebsiella pneumoniae [2]): 3.13 µg/mL (≈ 5.59 µM)
MIC [3]: 25 µg/mL (≈ 44.7 µM)
MIC (Proteus vulgaris 3027): 3.13 µg/mL (≈ 5.59 µM)
MIC (Proteus morganii): 3.13 µg/mL (≈ 5.59 µM)
MIC (Klebsiella pneumoniae [4]; clinical isolate GN 917): 6.25 µg/mL (≈ 11.2 µM)
MIC (Klebsiella pneumoniae [4]; clinical isolate GN 4081): 25 µg/mL (≈ 44.7 µM)
MIC (Klebsiella pneumoniae [4]; clinical isolate GN 4117): 25 µg/mL (≈ 44.7 µM)
MIC (Pseudomonas aeruginosa; clinical isolate GN 82): 50 µg/mL (≈ 89.4 µM)
MIC (Pseudomonas aeruginosa; clinical isolate GN 163): 50 µg/mL (≈ 89.4 µM)
MIC (Pseudomonas aeruginosa; clinical isolate GN 221): 12.5 µg/mL (≈ 22.3 µM)
MIC (Pseudomonas aeruginosa; clinical isolate GN 244): 50 µg/mL (≈ 89.4 µM)
MIC (Pseudomonas aeruginosa; clinical isolate GN 376): 50 µg/mL (≈ 89.4 µM)
MIC (Pseudomonas aeruginosa; clinical isolate GN 383): 50 µg/mL (≈ 89.4 µM)
MIC (Pseudomonas aeruginosa; clinical isolate GN 1035): 200 µg/mL (≈ 357 µM)
MIC (Pseudomonas aeruginosa; clinical isolate GN 1091): 50 µg/mL (≈ 89.4 µM)
MIC (Pseudomonas aeruginosa; clinical isolate GN 2565): 100 µg/mL (≈ 179 µM)
MIC (Pseudomonas aeruginosa; clinical isolate GN 2987): 50 µg/mL (≈ 89.4 µM)
MIC (Pseudomonas aeruginosa; clinical isolate S-1): 200 µg/mL (≈ 357 µM)
MIC (Pseudomonas aeruginosa; clinical isolate S-2): 100 µg/mL (≈ 179 µM)
MIC (Pseudomonas aeruginosa; clinical isolate S-3): 100 µg/mL (≈ 179 µM)
MIC (Pseudomonas aeruginosa; clinical isolate S-4): 100 µg/mL (≈ 179 µM)
MIC (Proteus vulgaris): 1.56 µg/mL (≈ 2.79 µM)
MIC (Proteus rettgeri): 6.25 µg/mL (≈ 11.2 µM)
